According to ChEMBL document CHEMBL2074426 (Mol Pharmacol, 2001):

Columns and labels:
Assay type in all cases: functional, cell-based
[1] = biological target: ATP-dependent translocase ABCB1 (Mus musculus, UniProt P21447); experiment: TP_TRANSPORTER: transepithelial transport (basal to apical) in mdr1a-expressing LLC-PK1 cell; conditions: pig
[2] = biological target: ATP-dependent translocase ABCB1 (Homo sapiens, UniProt P08183); experiment: TP_TRANSPORTER: transepithelial transport (basal to apical) in MDR1-expressing LLC-PK1 cells; conditions: pig
[3] = biological target: ATP-dependent translocase ABCB1 (Mus musculus, UniProt P06795); experiment: TP_TRANSPORTER: transepithelial transport (basal to apical) in mdr1b-expressing LLC-PK1 cell

Measured: Activity

Chain of ATP-dependent translocase ABCB1 (Mus musculus, UniProt P06795) (P06795 whole entry): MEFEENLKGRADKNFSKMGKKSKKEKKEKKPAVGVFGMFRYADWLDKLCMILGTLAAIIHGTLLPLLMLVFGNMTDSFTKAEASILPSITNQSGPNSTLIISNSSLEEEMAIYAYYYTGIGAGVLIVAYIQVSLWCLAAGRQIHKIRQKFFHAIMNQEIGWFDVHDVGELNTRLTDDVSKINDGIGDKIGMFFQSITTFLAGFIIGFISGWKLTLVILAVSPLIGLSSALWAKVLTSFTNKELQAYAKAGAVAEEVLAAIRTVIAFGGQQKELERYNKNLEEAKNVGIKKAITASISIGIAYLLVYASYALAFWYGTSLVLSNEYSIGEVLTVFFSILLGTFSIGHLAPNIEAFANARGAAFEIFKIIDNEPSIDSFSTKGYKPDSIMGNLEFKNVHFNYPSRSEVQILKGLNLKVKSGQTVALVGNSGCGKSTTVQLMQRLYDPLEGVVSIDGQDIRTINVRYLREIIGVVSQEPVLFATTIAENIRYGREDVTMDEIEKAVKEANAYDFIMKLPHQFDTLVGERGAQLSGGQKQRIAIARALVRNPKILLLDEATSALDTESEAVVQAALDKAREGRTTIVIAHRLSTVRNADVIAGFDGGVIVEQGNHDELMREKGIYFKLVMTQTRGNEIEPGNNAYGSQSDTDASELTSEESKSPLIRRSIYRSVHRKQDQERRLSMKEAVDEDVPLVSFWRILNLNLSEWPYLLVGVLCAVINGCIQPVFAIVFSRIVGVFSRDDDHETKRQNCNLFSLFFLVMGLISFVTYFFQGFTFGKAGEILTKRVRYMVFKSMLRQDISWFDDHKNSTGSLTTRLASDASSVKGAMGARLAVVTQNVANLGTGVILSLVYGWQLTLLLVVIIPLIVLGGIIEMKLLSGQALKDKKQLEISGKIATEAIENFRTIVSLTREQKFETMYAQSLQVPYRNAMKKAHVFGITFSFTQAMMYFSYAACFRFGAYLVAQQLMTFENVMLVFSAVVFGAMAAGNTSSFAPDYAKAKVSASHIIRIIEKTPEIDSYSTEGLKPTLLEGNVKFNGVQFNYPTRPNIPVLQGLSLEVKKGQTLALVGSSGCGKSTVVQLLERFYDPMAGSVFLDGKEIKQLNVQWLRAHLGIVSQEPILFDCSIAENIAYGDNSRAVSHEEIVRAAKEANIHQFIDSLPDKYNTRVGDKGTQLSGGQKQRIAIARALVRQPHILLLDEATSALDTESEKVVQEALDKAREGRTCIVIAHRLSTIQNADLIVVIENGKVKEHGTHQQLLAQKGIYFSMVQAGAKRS
Chain of ATP-dependent translocase ABCB1 (Mus musculus, UniProt P21447) (P21447 whole entry): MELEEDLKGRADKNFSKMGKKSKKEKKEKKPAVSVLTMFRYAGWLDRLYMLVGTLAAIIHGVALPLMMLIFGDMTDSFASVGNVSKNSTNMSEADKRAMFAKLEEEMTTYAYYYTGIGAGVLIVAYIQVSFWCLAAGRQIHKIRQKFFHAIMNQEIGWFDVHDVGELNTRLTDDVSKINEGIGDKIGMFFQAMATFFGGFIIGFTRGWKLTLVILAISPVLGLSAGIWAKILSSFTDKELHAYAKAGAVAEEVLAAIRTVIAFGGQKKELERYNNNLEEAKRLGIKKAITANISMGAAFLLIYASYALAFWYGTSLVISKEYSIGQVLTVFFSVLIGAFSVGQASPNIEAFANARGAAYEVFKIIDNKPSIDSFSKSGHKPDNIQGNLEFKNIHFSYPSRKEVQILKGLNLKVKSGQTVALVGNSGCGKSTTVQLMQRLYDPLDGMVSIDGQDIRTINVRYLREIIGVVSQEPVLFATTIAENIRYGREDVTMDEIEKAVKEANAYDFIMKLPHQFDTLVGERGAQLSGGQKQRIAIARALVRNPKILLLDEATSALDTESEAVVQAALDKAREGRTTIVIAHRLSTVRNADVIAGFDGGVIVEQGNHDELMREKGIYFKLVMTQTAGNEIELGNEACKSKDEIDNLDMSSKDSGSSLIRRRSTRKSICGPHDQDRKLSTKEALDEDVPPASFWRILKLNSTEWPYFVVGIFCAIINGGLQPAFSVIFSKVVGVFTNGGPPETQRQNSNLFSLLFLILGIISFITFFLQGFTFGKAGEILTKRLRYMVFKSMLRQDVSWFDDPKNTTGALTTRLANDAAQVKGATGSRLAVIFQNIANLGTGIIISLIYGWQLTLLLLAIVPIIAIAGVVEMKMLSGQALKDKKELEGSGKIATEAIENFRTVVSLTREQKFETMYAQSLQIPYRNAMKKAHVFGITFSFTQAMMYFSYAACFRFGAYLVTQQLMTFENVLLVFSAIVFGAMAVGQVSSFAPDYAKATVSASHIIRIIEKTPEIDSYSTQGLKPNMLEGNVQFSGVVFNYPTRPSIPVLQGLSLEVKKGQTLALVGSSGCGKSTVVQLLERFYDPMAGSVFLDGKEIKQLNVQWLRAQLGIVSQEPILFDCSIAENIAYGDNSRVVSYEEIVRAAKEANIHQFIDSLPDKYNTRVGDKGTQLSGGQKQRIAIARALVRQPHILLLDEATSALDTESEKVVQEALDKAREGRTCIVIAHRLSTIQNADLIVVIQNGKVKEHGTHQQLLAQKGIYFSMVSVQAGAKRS
Chain of ATP-dependent translocase ABCB1 (Homo sapiens, UniProt P08183) (P08183 whole entry): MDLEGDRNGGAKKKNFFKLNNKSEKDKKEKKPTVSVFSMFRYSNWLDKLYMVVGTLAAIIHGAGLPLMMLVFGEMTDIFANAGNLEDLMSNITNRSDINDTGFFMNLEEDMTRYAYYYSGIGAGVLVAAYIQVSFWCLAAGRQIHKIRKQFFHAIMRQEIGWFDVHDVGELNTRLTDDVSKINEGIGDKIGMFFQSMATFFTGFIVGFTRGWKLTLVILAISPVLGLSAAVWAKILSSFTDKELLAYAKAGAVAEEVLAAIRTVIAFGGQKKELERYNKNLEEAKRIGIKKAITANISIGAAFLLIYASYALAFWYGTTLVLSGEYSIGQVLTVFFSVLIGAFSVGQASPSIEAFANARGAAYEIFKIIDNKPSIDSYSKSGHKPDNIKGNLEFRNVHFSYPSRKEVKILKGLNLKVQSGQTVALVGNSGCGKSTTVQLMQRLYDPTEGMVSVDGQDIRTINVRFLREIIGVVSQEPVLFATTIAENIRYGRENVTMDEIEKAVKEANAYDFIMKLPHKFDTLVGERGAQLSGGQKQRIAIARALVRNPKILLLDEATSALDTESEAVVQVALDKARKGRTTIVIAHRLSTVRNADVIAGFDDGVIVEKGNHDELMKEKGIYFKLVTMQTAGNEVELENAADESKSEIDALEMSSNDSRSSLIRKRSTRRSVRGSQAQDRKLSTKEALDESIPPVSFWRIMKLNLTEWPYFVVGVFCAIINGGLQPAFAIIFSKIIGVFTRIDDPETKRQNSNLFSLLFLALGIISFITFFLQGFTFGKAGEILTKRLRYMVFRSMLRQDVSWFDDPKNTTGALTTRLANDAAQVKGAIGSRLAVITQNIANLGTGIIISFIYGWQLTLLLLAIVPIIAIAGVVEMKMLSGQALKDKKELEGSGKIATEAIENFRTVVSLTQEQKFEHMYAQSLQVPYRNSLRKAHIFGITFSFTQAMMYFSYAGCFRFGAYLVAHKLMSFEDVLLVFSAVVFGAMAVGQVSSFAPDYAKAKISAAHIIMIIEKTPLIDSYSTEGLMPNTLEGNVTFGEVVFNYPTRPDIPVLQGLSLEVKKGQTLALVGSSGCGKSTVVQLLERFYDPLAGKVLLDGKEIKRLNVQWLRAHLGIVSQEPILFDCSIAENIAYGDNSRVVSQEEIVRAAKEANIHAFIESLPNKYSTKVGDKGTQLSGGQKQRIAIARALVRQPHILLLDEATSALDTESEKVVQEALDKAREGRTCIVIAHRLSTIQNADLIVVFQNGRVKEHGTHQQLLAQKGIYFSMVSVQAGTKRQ

CC(C)(C)NC(=O)[C@@H]1C[C@@H]2CCCC[C@@H]2CN1C[C@@H](O)[C@H](Cc1ccccc1)NC(=O)[C@H](CC(N)=O)NC(=O)c1ccc2ccccc2n1
substrate [+]: [1] | [2] | [3]
